In ChEMBL document CHEMBL4831503, “Design, synthesis, in vitro and in vivo anti-respiratory syncytial virus (RSV) activity of novel oxizine fused benzimidazole derivatives” (Eur J Med Chem, 2021):
The source made the active and inactive calls. The calls are words filed in the database; no cut-off is given here.

Tests used:
[1] = tested on: Respiratory syncytial virus; assay: Antiviral activity against RSV infected in BALB/c mouse assessed as downregulation of IL-8 expression in lung tissue infected with RSV at 25 to 100 mg/kg/day measured after 2 to 6 days post infection by RT-PCR analysis; type: functional, organism-based; settings: dose 25-100 mg/kg/day, time 2-6 day
[2] = tested on: Respiratory syncytial virus; assay: Antiviral activity against Respiratory syncytial virus infected in human HEp-2 cells incubated for 60 hrs by MTT assay; type: functional, organism-based; settings: HEp-2, 60 h
[3] = tested on: Respiratory syncytial virus; assay: Antiviral activity against RSV Long infected in BALB/c mouse assessed as improvement in inflammatory infiltration of lung tissue at 25 mg/kg/day observed on day 6 after infection by H and E staining based microscopic analysis; type: functional, organism-based; settings: time 6.0 day
[4] = tested on: Respiratory syncytial virus; assay: Antiviral activity against RSV Long infected in BALB/c mouse assessed as reversal of virus infection induced weight loss at 25 to 100 mg/kg/day administered via gastric gavage once daily for 6 days; type: functional, organism-based; settings: dose 25-100 mg/kg/day, time 6.0 day
[5] = tested on: Respiratory syncytial virus; assay: Antiviral activity against Respiratory syncytial virus infected in human HEp-2 cells assessed as inhibition of virus infected cells induced lesion formation at 25 uM measured after 60 hrs by microscopic analysis; type: functional, organism-based
[6] = tested on: HEp-2; assay: Induction of apoptosis in human HEp-2 cells assessed as late apoptotic cells at 25 uM measured after 60 hrs by Annexin V-FITC/PI staining based flow cytometry analysis (reference value: 1.6%); type: functional
[7] = tested on: Respiratory syncytial virus; assay: Antiviral activity against Respiratory syncytial virus Long infected in human HEp-2 cells assessed as reduction in viral infection incubated for 60 hrs by MTT assay; type: functional, organism-based; settings: HEp-2, 60 h
[8] = tested on: Respiratory syncytial virus; assay: Antiviral activity against RSV infected in human HEp-2 cells assessed as downregulation of RIG-1 expression at 25 to 50 uM treated 48 hpi and measured after 48 hrs by Western blot analysis; type: functional, organism-based; settings: dose 25-50 µM
[9] = tested on: Respiratory syncytial virus; assay: Antiviral activity against RSV infected in BALB/c mouse assessed as downregulation of TNF-alpha expression in lung tissue infected with RSV at 25 to 100 mg/kg/day measured after 2 to 6 days post infection by RT-PCR analysis; type: functional, organism-based; settings: dose 25-100 mg/kg/day, time 2-6 day
[10] = tested on: Respiratory syncytial virus; assay: Antiviral activity against RSV infected in BALB/c mouse assessed as downregulation of iNOS expression in lung tissue infected with RSV at 25 to 100 mg/kg/day measured after 2 to 6 days post infection by RT-PCR analysis; type: functional, organism-based; settings: dose 25-100 mg/kg/day, time 2-6 day
[11] = tested on: Respiratory syncytial virus; assay: Antiviral activity against RSV infected in BALB/c mouse assessed as inhibition of viral replication by measuring RSV-M gene expression in lung after 2 to 6 days post infection by RT-PCR analysis; type: functional, organism-based; settings: time 2-6 day
[12] = tested on: Respiratory syncytial virus; assay: Inhibition of RSV induced apoptosis in human HEp-2 cells assessed as early apoptotic cells at 50 uM measured after 60 hrs by Annexin V-FITC/PI staining based flow cytometry analysis (reference value: 10.3%); type: functional; design: scale not given: the % may be the effect or the level left
[13] = tested on: Human orthopneumovirus; assay: Antiviral activity against Respiratory syncytial virus A2 infected in human HEp-2 cells assessed as reduction in viral infection up to 50 uM treated 2 hpi measured after 60 hrs by MTT assay; type: functional, organism-based; settings: dose microM <=50, time 60.0 hrs
[14] = tested on: HEp-2; assay: Induction of ROS production in human HEp-2 cells assessed as accumulation of ROS-positive cells at 25 uM measured after 36 hrs by DCHF-DA staining based flow cytometry analysis (reference value: 48.2%); type: functional
[15] = tested on: Respiratory syncytial virus; assay: Antiviral activity against RSV Long infected in BALB/c mouse assessed as improvement in lung congestion at 25 to 100 mg/kg/day observed on day 6 after infection by H and E staining based microscopic analysis; type: functional, organism-based; settings: dose 25-100 mg/kg/day, time 6.0 day
[16] = tested on: Respiratory syncytial virus; assay: Antiviral activity against Respiratory syncytial virus Long infected in African green monkey Vero cells assessed as reduction in viral infection incubated for 60 hrs by MTT assay; type: functional, organism-based; settings: human respiratory syncytial virus
[17] = tested on: Respiratory syncytial virus; assay: Inhibition of RSV induced apoptosis in human HEp-2 cells assessed as reduction in PARP cleavage measured after 48 hrs by Western blot analysis; type: functional, organism-based
[18] = tested on: Respiratory syncytial virus; assay: Antiviral activity against Respiratory syncytial virus Long infected in human A549 cells assessed as reduction in viral infection incubated for 60 hrs by MTT assay; type: functional, organism-based; settings: A549, 60 h
[19] = tested on: Respiratory syncytial virus; assay: Antiviral activity against RSV infected in human HEp-2 cells assessed as downregulation of NF-kappaB expression at 25 to 50 uM treated 48 hpi and measured after 48 hrs by Western blot analysis; type: functional, organism-based; settings: dose 25-50 µM
[20] = tested on: Human orthopneumovirus; assay: Antiviral activity against Respiratory syncytial virus A2 infected in human A549 cells assessed as reduction in viral infection incubated for 60 hrs by MTT assay; type: functional, organism-based; settings: A2, A549, 60 h
[21] = tested on: Respiratory syncytial virus; assay: Antiviral activity against RSV infected in BALB/c mouse assessed as downregulation of IL-10 expression in lung tissue infected with RSV at 25 to 100 mg/kg/day measured after 2 to 6 days post infection by RT-PCR analysis; type: functional, organism-based; settings: dose 25-100 mg/kg/day, time 2-6 day
[22] = Inhibition of RSV induced ROS production in human HEp-2 cells assessed as reduction in accumulation of ROS-positive cells at 50 uM measured after 36 hrs by DCHF-DA staining based flow cytometry analysis (reference value: 82.2%); type: functional, Respiratory syncytial virus; design: scale not given: the % may be the effect or the level left
[23] = tested on: Respiratory syncytial virus; assay: Inhibition of RSV induced apoptosis in human HEp-2 cells assessed as late apoptotic cells at 25 uM measured after 60 hrs by Annexin V-FITC/PI staining based flow cytometry analysis (reference value: 20.2%); type: functional; design: scale not given: the % may be the effect or the level left
[24] = tested on: Respiratory syncytial virus; assay: Antiviral activity against Respiratory syncytial virus infected in human HEp-2 cells assessed as reduction in RSV-F gene expression at 25 uM measured after 24 to 60 hpi by RT-PCR analysis; type: functional, organism-based; settings: time 24-60 hrs
[25] = tested on: Respiratory syncytial virus; assay: Inhibition of RSV induced apoptosis in human HEp-2 cells assessed as late apoptotic cells at 50 uM measured after 60 hrs by Annexin V-FITC/PI staining based flow cytometry analysis (reference value: 20.2%); type: functional; design: scale not given: the % may be the effect or the level left
[26] = Cytotoxicity against human HEp-2 cells assessed as reduction in cell viability measured after 60 hrs by MTT assay; type: cell-based
[27] = tested on: Respiratory syncytial virus; assay: Antiviral activity against RSV infected in human HEp-2 cells assessed as decrease in virus induced RIG-1 gene expression measured after 48 hrs by RT-PCR analysis; type: functional, organism-based
[28] = Inhibition of RSV induced ROS production in human HEp-2 cells assessed as reduction in accumulation of ROS-positive cells at 25 uM measured after 36 hrs by DCHF-DA staining based flow cytometry analysis (reference value: 82.2%); type: functional, Respiratory syncytial virus; design: scale not given: the % may be the effect or the level left
[29] = tested on: Respiratory syncytial virus; assay: Antiviral activity against RSV Long infected in BALB/c mouse assessed as lung edema at 25 mg/kg/day observed on day 6 after infection by H and E staining based microscopic analysis; type: functional, organism-based; settings: time 6.0 day
[30] = tested on: Respiratory syncytial virus; assay: Antiviral activity against RSV infected in human HEp-2 cells assessed as decrease in virus induced TLR-3 gene expression measured after 48 hrs by RT-PCR analysis; type: functional, organism-based
[31] = tested on: Respiratory syncytial virus; assay: Antiviral activity against RSV infected in human HEp-2 cells assessed as decrease in virus induced TRAF3 gene expression measured after 48 hrs by RT-PCR analysis; type: functional, organism-based
[32] = tested on: Respiratory syncytial virus; assay: Inhibition of RSV induced apoptosis in human HEp-2 cells assessed as reduction in cleaved caspase-9 expression measured after 48 hrs by Western blot analysis; type: functional, organism-based
[33] = tested on: Respiratory syncytial virus; assay: Inhibition of RSV induced apoptosis in human HEp-2 cells assessed as reduction in cleaved caspase-7 expression measured after 48 hrs by Western blot analysis; type: functional, organism-based

SMILES: Cc1c(Br)cc2nc3n(c2c1Br)[C@H]1OC[C@@H](O)[C@H]1OC3
- Activity [1]: Active
- EC50 [2]: 9.49 µM
- Activity [3]: Active
- Activity [4]: Active
- Activity [5]: Active
- Activity [6]: 2.4%
- EC50 [7]: 9.49 µM
- Activity [8]: Active
- Activity [9]: Active
- Activity [10]: Active
- Activity [11]: Dose-Dependent Effect
- Activity [12]: 3.9%
- Activity [13]: Active
- Activity [14]: 53.1%
- Activity [15]: Active
- EC50 [16]: 19 µM
- inhibition [17]: Active
- EC50 [18]: 13.3 µM
- Activity [19]: Active
- EC50 [20]: 13.2 µM
- Activity [21]: Active
- Activity [22]: 56.3%
- Activity [23]: 1.8%
- Activity [24]: Active
- Activity [25]: 2.2%
- CC50 at 60 h [26]: 250 µM
- Activity [27]: Dose-Dependent Effect
- Activity [28]: 60.7%
- Activity [29]: Active
- Activity [30]: Dose-Dependent Effect
- Activity [31]: Dose-Dependent Effect
- inhibition [32]: Active
- inhibition [33]: Active
